Results as given in patent US20080311656A1, “Meiosis arrest in oocytes in vitro” (Novo Nordisk A/S, priority 2002, published 2008).
“Also recorded” adds a separate entry of the source.

Key:
Human oocytes (COCs) [1] = experiment: Meiosis arrest (nuclear maturation stage GV/GVBD/PB) of COCs cultured with DDMP; type: cell-based; conditions: for oocytes still arrested at the GV-stage: 72 hours in DDMP
Experimental: (§1) Patients included in this study were undergoing fertility treatment and were primed with variable doses of gonadotropins while being carefully monitored using serum hormone and vaginal ultrasound monitoring (Human Reproduction 7 (1992), 49 et seq.). Collection of oocytes cumulus complexes (COCs) from different follicle sizes was performed as follows: 1°) during laparoscopic surgery, 2°) aspirated from patients with stimulated ovaries undergoing follicle reduction before intrauterine insemination (to avoid multiple gestation due to multiple ovulation) (Albano et al, 2001) or 3°) during ovum pick up after having aspirated the larger follicles (>15 mm) destinated for IVF treatment (Human Reproduction 7 (1992), 49 et seq.). Basically, these aspirations yielded two types of COC: a first group that had never been exposed to LH activity (pre-hCG) and a second group of follicles 36 h after an exposure to hCG (injected) or endogenous LH (spontaneous LH peak). When possible, follicle diameters were recorded by vaginal ultrasound measurement. COCs used in this study were retrieved from follicles with diameters between 6 and 14 mm.
Human oocytes aspiration was performed by ultrasound-guided transvaginal follicle aspiration using a single lumen needle (Cook, K-OPS-1230-VUB, Switzerland AG) after paracervical infiltration with a local anesthetic. The aspiration pressure used was reduced from the usual 100 mmHg for recovery of mature oocytes to 60 mmHg. Follicles were flushed using HEPES-buffered Earle's medium at least three times.
(§2) At the time of oocyte retrieval only the COCs classified as I or II were placed in culture.
Twenty-four hours later, oocyte stages were recorded and oocytes showing a clear polar body extrusion were removed from culture. After 48 hours, all oocytes were assessed and GV, GVBD and polar body extruded ones were recorded.
(§3) The basal medium used for oocyte culture was D-MEM (D-5280, Life Technologies, Merelbeke, Belgium) with 2 mM Glutamax-1, NaHCO3 (2 g/L) supplemented with 10 mIU/ml FSH (Gonal-F®, kindly donated by Ares Serono, Geneva, Switzerland), 100 ng/ml IGF-I (R&D, UK), 5 ng/ml insulin, 5 ng/ml selenium, 5 μg/ml transferrin (Life technologies, Merelbeke, Belgium) and 0.1% human serum albumin (CAF-DCF, Brussels, Belgium). 17β-E2 (Sigma, Bornem, Belgium) was diluted in ethanol and added to oil to reach a final concentration of 1 μg/ml in the 10 μl medium droplets underneath (this concentration was measured using specific radioimmunoassay). Microdroplets of 10 μl medium, were covered with 2 ml of oil. A refreshment of […] conditioned medium was performed each 24 hours. All cultures were carried out at 37° C. in humidified atmosphere in an incubator gassed with 5% CO2 in air.
(§4) DDMP was added at a 10 μM final concentration (0.1% DMSO). Directly after aspiration, single COCs were washed in flushing medium (D-MEM with HEPES) and placed into […] droplets under oil. COCs were randomised over two culture conditions: with and without DDMP. Oocytes cultured with DDMP for 24 hours, 48 hours and 72 hours were studied for reversal of meiosis arrest by washing out the inhibitor. Reversal of PDE 3 inhibition was performed by mechanical denudation of the remaining somatic cells and placing the oocytes in the conditioned medium for an additional 24-30 h.
(§5) Evaluation of cumulus morphology expansion in culture related to follicle treatment, resumption of maturation, kinetics of GVBD and polar body extrusion were analysed using the χ^2test and Fisher's exact test for comparison between control and DDMP treated groups. Statistical significance was considered when P<0.05.

[2] = test system: cumulus-corona cells of COCs; experiment: Cumulus cell expansion (COC types I-IV) during culture in the presence of DDMP; type: cell-based, human
Experimental: as §1
The COCs were evaluated immediately after aspiration and after 24 hours and 48 hours culture and classified as follows: type (I), compact mass of 3-5 layers of granulosa cells; type (II), expanded distal layers of granulosa cells (cumulus), but a compact proximal granulosa cell layer; type (III), expanded distal (cumulus) and proximal (corona cells) layers of granulosa cells; and type (IV) partially denuded oocytes due to expanded granulosa cells.
as §2, §3, §4, §5

[3] = test system: Human oocytes arrested at GV-stage; experiment: Reversal of meiosis arrest after washing out the inhibitor; type: cell-based
Experimental: as §4, with “Reversal of PDE 3 inhibition was performed by mechanical denudation of the remaining somatic cells and placing the oocytes in the conditioned medium for an additional 24-30 h.” left out
as §5

Human oocytes (COCs) [4] = experiment: Light and electron microscopy of oocytes arrested by DDMP; type: cell-based
Experimental: During evaluation at 24 hours and 48 hours culture, part of the oocytes with and without DDMP were fixed for EM analysis.
A total of 48 oocytes (4 at time of retrieval, 21 after 24 hours, 20 after 48 hours and 3 after 72 hours culture) were fixed in glutaraldehyde 2.5% in cacodylate buffer at pH 7.3 for at least 2 hours at 4° C. at time 0 h, 24 hours and 48 hours of maturation. All oocytes were embedded individually. Afterwards, they were postfixed in OsO4 1% in H2O for 30 min, stained with uranyl acetate 2% in veronal buffer for 60 min, dehydrated through graded alcohols, embedded in SPURR (Taab; Bodson, Liège, Belgium) and left to polymerize overnight at 70° C.
Semithin sections of 0.5 μm and ultrathin sections of 75 nm were made at approximately 30 levels (range 15-35). The semithin sections were mounted on glass slides and stained with toluidine blue for light microscopical guidance. […]
In order to analyse the effect of PDE 3 inhibition on nuclear and cytoplasm organization, ultrastructural observation was performed at the different culture times in oocytes arrested or not by DDMP. The oocytes analyzed did originate from follicles with diameter between 8-12 mm.

[5] = test system: polar body extruded oocytes; experiment: Confocal laser microscopy for microfilaments and chromosome analysis; type: cell-based, human
Experimental: For localization of microfilaments, 39 polar body extruded oocytes (25 oocytes 48 hours after maturation in control medium and 14 oocytes after inhibitor removal) were fixed with 2.5% glutaraldehyde in cacodylate buffer for at least 2 hours, washed with PBS/1% BSA, placed into 0.1% Triton X-100 for 5 min and rinsed again with PBS. Afterwards, oocytes were placed into Texas red-labeled phalloidin staining f-actin diluted 1:40 PBS for f-actin and Pico green 1:2000 PBS for DNA staining.

isolated oocytes = conditions: rodents; cited from earlier work
[6] = post-hCG COCs, 24 hours culture in DDMP 10 μM
[7] = pre-hCG COCs, 24 hours culture in DDMP 10 μM
[8] = inhibitor removal day 2 (48 hours in DDMP), post-hCG, 11 oocytes
[9] = inhibitor removal day 2 (48 hours in DDMP), pre-hCG, 11 oocytes
[10] = inhibitor removal day 3 (72 hours in DDMP), post-hCG, 10 oocytes
[11] = inhibitor removal day 3 (72 hours in DDMP), pre-hCG, 13 oocytes

morphological aspect of COC (degeneration) (Human oocytes (COCs) [4]; arrested in vitro for 72 hours in presence of DDMP (FIG. 11)): degenerative aspect | number of oocytes with nuclei forming a clump of chromosomes at place of metaphase plate ([5]; 24-30 hours after inhibitor removal): Two
Structure (SMILES): COc1cc2cc(C3=NNC(=O)CC3C)sc2cc1OC (stereo not shown) [DDMP, 4,5-dihydro-6-(5,6-dimethoxybenzo[b]thien-2-yl)-5-methyl-3(2H)-pyridazinone]
time up to which nuclear arrest could be held on (Human oocytes (COCs) [1]; DDMP 10 μM): up to 72 hours | time for which resumption of meiosis was blocked / meiotic arrest in GV maintained (Human oocytes (COCs) [1]; DDMP 10 μM, COCs from antral follicles): at least 48 hours | oocytes remaining at GV-stage (Human oocytes (COCs) [1]; post-hCG COCs (n=42), 24 hours, DDMP 10 μM, control 22.5%): 92.9% | COCs classified type II at retrieval that remained arrested at the GV-stage (Human oocytes (COCs) [1]; post-hCG COCs of type II at retrieval, 48 hours culture with DDMP): 77.6% | oocytes that extruded a visible polar body (PB) (Human oocytes (COCs) [1]; post-hCG COCs, 24 hours, DDMP 10 μM, control 10.0%): 2.4% | oocytes at the GV-stage (Human oocytes (COCs) [1]; post-hCG COCs, 48 hours, DDMP 10 μM, control 6.0%): 83.3% | oocytes at GVBD (Human oocytes (COCs) [1]; post-hCG COCs, 48 hours, DDMP 10 μM, control 12.1%): 8.3% | oocytes at PB (Human oocytes (COCs) [1]; post-hCG COCs, 48 hours, DDMP 10 μM, control 81.8%): 5.6% | oocytes still arrested at the GV-stage (Human oocytes (COCs) [1]; post-hCG, 10 out of 15): 66.6% | oocytes remaining at GV-stage (Human oocytes (COCs) [1]; pre-hCG COCs (n=39), 24 hours, DDMP 10 μM, control 24.3%): all oocytes remained at GV-stage | oocytes at GVBD (Human oocytes (COCs) [1]; pre-hCG COCs, 48 hours, DDMP 10 μM, control 12.9%): 5.5% | oocytes remaining at GV-stage (Human oocytes (COCs) [1]; pre-hCG COCs, 48 hours, DDMP 10 μM, control 19.3%): 88.9% | oocytes at PB (Human oocytes (COCs) [1]; pre-hCG COCs, 48 hours, DDMP 10 μM, control 64.5%): 2.8% | oocytes still arrested at the GV-stage (Human oocytes (COCs) [1]; pre-hCG, 16 out of 19): 84.2% | influence on expansion and mucification pattern of COC / loss of coupling between somatic cells and oocyte ([2]; DDMP 10 μM versus control medium, before and during culture): not modified; also recorded: no influence | proportion of COCs classified type I ([2]; post-hCG COCs of the DDMP group, at retrieval (0 hour, baseline)): 48.8% | oocytes that had lost connection with cumulus cells (type IV) [2, 6]: 7.1% | proportion of COCs classified type I [2, 6]: 4.7% | proportion of COCs classified type II [2, 6]: 57.1% | proportion of COCs classified type III [2, 6]: 30.9% | oocytes that had lost connections with the somatic cells (type IV) ([2]; post-hCG COCs, 48 hours culture in DDMP 10 μM): 62.1% | proportion of COCs classified type I ([2]; pre-hCG COCs of the DDMP group, at retrieval (0 hour, baseline)): 74.4% | proportion of COCs classified type I [2, 7]: 25.6% | proportion of COCs classified type II [2, 7]: 56.4% | proportion of COCs classified type III [2, 7]: 15.4% | oocytes that had lost their connections with the cumulus cells (type IV) ([2]; pre-hCG COCs, 48 hours culture in DDMP 10 μM): 22.2% | number of oocytes that progressed to GVBD after inhibitor wash-out ([3]; 48 hours in DDMP, post-hCG, 11 oocytes, 24-30 h in control medium): 11 | number of oocytes that progressed to GVBD after inhibitor wash-out ([3]; 48 hours in DDMP, pre-hCG, 11 oocytes, 24-30 h in control medium): 4 | number of oocytes that progressed to GVBD after inhibitor wash-out ([3]; 72 hours in DDMP, pre-hCG, 13 oocytes, 24 to 30 hours in conditioned medium): 7 | PB (%) 24-30 hours after DDMP removal [3, 8]: 54% | number of oocytes at GVBD (arrested at this stage) 24-30 hours after DDMP removal [3, 8]: 5 | number of oocytes at PB 24-30 hours after DDMP removal [3, 8]: 6 | PB (%) 24-30 hours after DDMP removal [3, 9]: 27% | number of oocytes at GV 24-30 hours after DDMP removal [3, 9]: 7 | number of oocytes at GVBD (arrested at this stage) 24-30 hours after DDMP removal [3, 9]: 1 | number of oocytes at PB 24-30 hours after DDMP removal [3, 9]: 3 | PB (%) 24-30 hours after DDMP removal [3, 10]: 100% | number of oocytes at PB 24-30 hours after DDMP removal [3, 10]: 10 | PB (%) 24-30 hours after DDMP removal [3, 11]: 46% | number of oocytes at GV 24-30 hours after DDMP removal [3, 11]: 6 | number of oocytes at GVBD (arrested at this stage) 24-30 hours after DDMP removal [3, 11]: 1 | number of oocytes at PB 24-30 hours after DDMP removal [3, 11]: 6 | resumption of meiosis after inhibitor removal ([3]; oocytes arrested with DDMP 10 μM): capable of resuming meiosis within the normal time frame | ultrastructural morphological signs of oocyte degeneration (Human oocytes (COCs) [4]; DDMP 10 μM, at least 48 hours culture): without ultrastructural morphological signs of oocyte degeneration | number of oocytes presenting the M II plate 24-30 hours after inhibitor removal ([5]; 3 out of 3 pre-hCG and 9 out of 11 post-hCG): Twelve | M II oocytes with well-aligned chromosomes positioned perpendicular to the oolema ([5]; 24-30 hours after inhibitor removal, control 80.0%): 83.3% | reversibility of blocking effects (isolated oocytes): fully reversible
